Measured values from ChEMBL document CHEMBL3745645, “Synthesis, in vitro antitumor activity, dihydrofolate reductase inhibition, DNA intercalation and structure-activity relationship studies of 1,3,5-triazine analogues” (Bioorg Med Chem Lett, 2016).
Calls of active or inactive are those of the source. The rule behind the calls is not given here.

How the values were obtained:
Assay type in all cases: functional
[1] = Cytotoxicity against human Caki1 cells at 10 uM after 48 hrs by SRB assay; conditions: CAKI-1, 48 h, read-out: GI
[2] = Cytotoxicity against human RXF393 cells at 10 uM after 48 hrs by SRB assay; conditions: RXF 393, 48 h, read-out: GI
SN12C = assay: Cytotoxicity against human SN12C cells at 10 uM after 48 hrs by SRB assay; conditions: read-out: GI
[3] = Cytotoxicity against human TK10 cells at 10 uM after 48 hrs by SRB assay; conditions: TK-10, 48 h, read-out: GI
[4] = Cytotoxicity against human UO31 cells at 10 uM after 48 hrs by SRB assay; conditions: UO-31, 48 h, read-out: GI
[5] = Cytotoxicity against human PC3 cells at 10 uM after 48 hrs by SRB assay; conditions: PC-3, 48 h, read-out: GI
DU-145 = assay: Cytotoxicity against human DU145 cells at 10 uM after 48 hrs by SRB assay
MCF7 = assay: Cytotoxicity against human MCF7 cells at 10 uM after 48 hrs by SRB assay; conditions: MCF7, 48 h, read-out: GI
MDA-MB-231 = assay: Cytotoxicity against human MDA-MB-231 cells at 10 uM after 48 hrs by SRB assay
[6] = Cytotoxicity against human Hs 578T cells at 10 uM after 48 hrs by SRB assay; conditions: read-out: GI
[7] = Cytotoxicity against human BT549 cells at 10 uM after 48 hrs by SRB assay; conditions: BT-549, 48 h, read-out: GI
T47D = assay: Cytotoxicity against human T47D cells at 10 uM after 48 hrs by SRB assay; conditions: read-out: GI
MDA-MB-468 = assay: Cytotoxicity against human MDA-MB-468 cells at 10 uM after 48 hrs by SRB assay; conditions: MDA-MB-468, 48 h, read-out: GI
CCRF-CEM = assay: Cytotoxicity against human CCRF-CEM cells at 10 uM after 48 hrs by SRB assay; conditions: read-out: GI
K562 = assay: Cytotoxicity against human K562 cells at 10 uM after 48 hrs by SRB assay; conditions: K562, 48 h, read-out: GI
[8] = Cytotoxicity against human MOLT4 cells at 10 uM after 48 hrs by SRB assay; conditions: MOLT-4, 48 h, read-out: GI
[9] = Cytotoxicity against human RPMI8226 cells at 10 uM after 48 hrs by SRB assay; conditions: RPMI-8226, 48 h, read-out: GI
SR = assay: Cytotoxicity against human SR cells at 10 uM after 48 hrs by SRB assay; conditions: read-out: GI
A549 = assay: Cytotoxicity against human A549 cells at 10 uM after 48 hrs by SRB assay; conditions: A549, 48 h, read-out: GI
HOP-62 = assay: Cytotoxicity against human HOP62 cells at 10 uM after 48 hrs by SRB assay
[10] = Cytotoxicity against human HOP92 cells at 10 uM after 48 hrs by SRB assay; conditions: HOP-92, 48 h, read-out: GI
NCI-H226 = assay: Cytotoxicity against human NCI-H226 cells at 10 uM after 48 hrs by SRB assay; conditions: NCI-H226, 48 h, read-out: GI
NCI-H23 = assay: Cytotoxicity against human NCI-H23 cells at 10 uM after 48 hrs by SRB assay; conditions: NCI-H23, 48 h, read-out: GI
NCI-H322M = assay: Cytotoxicity against human NCI-H322M cells at 10 uM after 48 hrs by SRB assay
NCI-H460 = assay: Cytotoxicity against human NCI-H460 cells at 10 uM after 48 hrs by SRB assay; conditions: NCI-H460, 48 h, read-out: GI
NCI-H522 = assay: Cytotoxicity against human NCI-H522 cells at 10 uM after 48 hrs by SRB assay; conditions: NCI-H522, 48 h, read-out: GI
[11] = Cytotoxicity against human COLO205 cells at 10 uM after 48 hrs by SRB assay; conditions: COLO 205, 48 h, read-out: GI
HCC 2998 = assay: Cytotoxicity against human HCC2998 cells at 10 uM after 48 hrs by SRB assay
[12] = Cytotoxicity against human HCT116 cells at 10 uM after 48 hrs by SRB assay; conditions: HCT-116, 48 h, read-out: GI
[13] = Cytotoxicity against human HCT15 cells at 10 uM after 48 hrs by SRB assay; conditions: HCT-15, 48 h, read-out: GI
HT-29 = assay: Cytotoxicity against human HT-29 cells at 10 uM after 48 hrs by SRB assay; conditions: HT-29, 48 h, read-out: GI
KM12 = assay: Cytotoxicity against human KM12 cells at 10 uM after 48 hrs by SRB assay; conditions: KM12, 48 h, read-out: GI
[14] = Cytotoxicity against human SW620 cells at 10 uM after 48 hrs by SRB assay; conditions: SW-620, 48 h, read-out: GI
[15] = Cytotoxicity against human SF268 cells at 10 uM after 48 hrs by SRB assay; conditions: SF-268, 48 h, read-out: GI
[16] = Cytotoxicity against human SF295 cells at 10 uM after 48 hrs by SRB assay; conditions: SF-295, 48 h, read-out: GI
[17] = Cytotoxicity against human SF539 cells at 10 uM after 48 hrs by SRB assay; conditions: SF-539, 48 h, read-out: GI
[18] = Cytotoxicity against human SNB19 cells at 10 uM after 48 hrs by SRB assay; conditions: SNB-19, 48 h, read-out: GI
[19] = Cytotoxicity against human SNB75 cells at 10 uM after 48 hrs by SRB assay; conditions: SNB-75, 48 h, read-out: GI
U-251 = assay: Cytotoxicity against human U251 cells at 10 uM after 48 hrs by SRB assay; conditions: U-251, 48 h, read-out: GI
LOX IMVI = assay: Cytotoxicity against human LOXIMVI cells at 10 uM after 48 hrs by SRB assay
Malme-3M = assay: Cytotoxicity against human MALME-3M cells at 10 uM after 48 hrs by SRB assay
M14 = assay: Cytotoxicity against human M14 cells at 10 uM after 48 hrs by SRB assay; conditions: M14, 48 h, read-out: GI
MDA-MB-435 = assay: Cytotoxicity against human MDA-MB-435 cells at 10 uM after 48 hrs by SRB assay; conditions: MDA-MB-435, 48 h, read-out: GI
SK-MEL-28 = assay: Cytotoxicity against human SK-MEL-28 cells at 10 uM after 48 hrs by SRB assay; conditions: SK-MEL-28, 48 h, read-out: GI
SK-MEL-5 = assay: Cytotoxicity against human SK-MEL-5 cells at 10 uM after 48 hrs by SRB assay; conditions: SK-MEL-5, 48 h, read-out: GI
UACC-257 = assay: Cytotoxicity against human UACC257 cells at 10 uM after 48 hrs by SRB assay
[20] = Cytotoxicity against human UACC62 cells at 10 uM after 48 hrs by SRB assay; conditions: UACC-62, 48 h, read-out: GI
[21] = Cytotoxicity against human OVCAR3 cells at 10 uM after 48 hrs by SRB assay; conditions: OVCAR-3, 48 h, read-out: GI
OVCAR-4 = assay: Cytotoxicity against human OVCAR4 cells at 10 uM after 48 hrs by SRB assay
OVCAR-5 = assay: Cytotoxicity against human OVCAR5 cells at 10 uM after 48 hrs by SRB assay
[22] = Cytotoxicity against human OVCAR8 cells at 10 uM after 48 hrs by SRB assay; conditions: OVCAR-8, 48 h, read-out: GI
[23] = Cytotoxicity against human SKOV3 cells at 10 uM after 48 hrs by SRB assay; conditions: SK-OV-3, 48 h, read-out: GI
786-0 = assay: Cytotoxicity against human 786-0 cells at 10 uM after 48 hrs by SRB assay; conditions: 786-0, 48 h, read-out: GI
A498 = assay: Cytotoxicity against human A498 cells at 10 uM after 48 hrs by SRB assay; conditions: A498, 48 h, read-out: GI
ACHN = assay: Cytotoxicity against human ACHN cells at 10 uM after 48 hrs by SRB assay; conditions: read-out: GI

Cc1nc2ccc(Nc3nc(Nc4ccc(F)cc4)nc(N4CCCCC4)n3)cc2n1Cc1ccccc1
inhibition of growth at 10 µM [1]: 1.51% | inhibition of growth at 10 µM [2]: 13.8% | inhibition of growth at 10 µM (SN12C): 3.75% | inhibition of growth at 10 µM [3]: 7.88% | inhibition of growth at 10 µM [4]: 15.7% | inhibition of growth at 10 µM [5]: 21.3% | growth inhibition (GI) (DU-145): inactive | inhibition of growth at 10 µM (MCF7): 38.8% | growth inhibition (GI) (MDA-MB-231): inactive | inhibition of growth at 10 µM [6]: 0.58% | inhibition of growth at 10 µM [7]: 5.37% | inhibition of growth at 10 µM (T47D): 34.7% | inhibition of growth at 10 µM (MDA-MB-468): 17.2% | inhibition of growth at 10 µM (CCRF-CEM): 20.5% | inhibition of growth at 10 µM (K562): 26.5% | inhibition of growth at 10 µM [8]: 30.7% | inhibition of growth at 10 µM [9]: 25.2% | inhibition of growth at 10 µM (SR): 50.7% | inhibition of growth at 10 µM (A549): 29.2% | growth inhibition (GI) (HOP-62): inactive | inhibition of growth at 10 µM [10]: 24.7% | inhibition of growth at 10 µM (NCI-H226): 12.3% | inhibition of growth at 10 µM (NCI-H23): 5.43% | growth inhibition (GI) (NCI-H322M): inactive | inhibition of growth at 10 µM (NCI-H460): 17.7% | inhibition of growth at 10 µM (NCI-H522): 30.1% | inhibition of growth at 10 µM [11]: 2.32% | growth inhibition (GI) (HCC 2998): inactive | inhibition of growth at 10 µM [12]: 26.5% | inhibition of growth at 10 µM [13]: 16.6% | inhibition of growth at 10 µM (HT-29): 28.9% | inhibition of growth at 10 µM (KM12): 8.36% | inhibition of growth at 10 µM [14]: 5.34% | inhibition of growth at 10 µM [15]: 4.31% | inhibition of growth at 10 µM [16]: 9.64% | inhibition of growth at 10 µM [17]: 2.48% | inhibition of growth at 10 µM [18]: 17.5% | inhibition of growth at 10 µM [19]: 4.31% | inhibition of growth at 10 µM (U-251): 21.5% | growth inhibition (GI) (LOX IMVI): inactive | growth inhibition (GI) (Malme-3M): inactive | inhibition of growth at 10 µM (M14): 7.86% | inhibition of growth at 10 µM (MDA-MB-435): 3.66% | inhibition of growth at 10 µM (SK-MEL-28): 3.66% | inhibition of growth at 10 µM (SK-MEL-5): 22.9% | growth inhibition (GI) (UACC-257): inactive | inhibition of growth at 10 µM [20]: 9.98% | inhibition of growth at 10 µM [21]: 0.84% | growth inhibition (GI) (OVCAR-4): inactive | growth inhibition (GI) (OVCAR-5): inactive | inhibition of growth at 10 µM [22]: 6.9% | inhibition of growth at 10 µM [23]: 2.27% | inhibition of growth at 10 µM (786-0): 11.8% | inhibition of growth at 10 µM (A498): 24.9% | inhibition of growth at 10 µM (ACHN): 3.6%
